These results are taken from ChEMBL document CHEMBL1123935 (J Med Chem, 1987).

The experiment concerns the target D(2) dopamine receptor (Rattus norvegicus, UniProt P61169). Kind of experiment: Compound was tested for inhibitory activity against the binding of [3H]spiperone to Dopamine receptor D2 in rat striatal membranes. It counts as cell membranes, Membrane.

D(2) dopamine receptor, sequence (P61169 whole entry): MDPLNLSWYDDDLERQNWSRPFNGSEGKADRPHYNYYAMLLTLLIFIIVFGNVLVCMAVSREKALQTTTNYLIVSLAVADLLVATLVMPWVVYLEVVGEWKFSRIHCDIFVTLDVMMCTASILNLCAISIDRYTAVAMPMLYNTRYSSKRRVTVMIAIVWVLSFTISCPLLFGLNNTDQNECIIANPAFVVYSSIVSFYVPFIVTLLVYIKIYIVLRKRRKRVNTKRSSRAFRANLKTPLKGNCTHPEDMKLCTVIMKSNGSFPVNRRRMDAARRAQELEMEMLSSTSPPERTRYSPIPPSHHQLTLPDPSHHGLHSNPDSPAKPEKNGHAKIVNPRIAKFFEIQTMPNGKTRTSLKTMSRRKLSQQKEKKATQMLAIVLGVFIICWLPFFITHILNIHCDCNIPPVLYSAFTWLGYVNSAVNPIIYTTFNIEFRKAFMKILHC

`C[S+](C)CCCN1c2ccccc2Sc2ccc(Cl)cc21` returned a Ki of 0.28 µM.

For the compound `C[N+](C)(C)CCCN1c2ccccc2Sc2ccc(Cl)cc21`, the Ki was 2.15 µM.

One may read the Ki as a measure of affinity in units of concentration, obtained from inhibition or displacement.
